Reference: paper PMC9016773 (Journal of chemical information and modeling, 2022)
Entries after “also recorded” stand apart in the source; their conditions may differ.

Assays:
[1] = test system: actin filaments underlying the plasma membrane (cortex actin); settings: inhibits HSPG-mediated endocytosis; cited from earlier work
[2] = test system: cortex actin filaments in U2OS cells; assay type: cell-based
[3] = test system: SARS-CoV-2 pseudotyped particles; assay type: cell-based; settings: read-out: IC50, anti-pseudotyped particle activity
[4] = test system: HSPG-mediated endocytosis of α-Synuclein fibrils in HEK293T cells; experiment: α-Synuclein fibrils uptake assay; assay type: cell-based; settings: among the top 10 inhibitors
SARS-CoV-2 = settings: among drugs of the repurposing screen; cited from earlier work

Row | SMILES | Disruption of actin filaments underlying the plasma membrane (cortex actin) [1] | Inhibition of the entry of pHrodo-labeled α-Synuclein fibrils (ranking in words) [4] | other results
1 | O=C1/C(=C/c2ccccc2)C[C@@]2(O)[C@H]3Cc4ccc(O)c5c4[C@@]2(CCN3CC2CC2)[C@H]1O5 [BNTX] | effectively disrupt the actin filaments |  | 
2 | CC(C)S(=O)(=O)c1oc(-c2ccc(F)cc2)nc1S(=O)(=O)c1ccccc1 [NCGC00115755-02] |  |  | Effect on actin filaments (phalloidin-Alexa488 staining) [2]: dose-dependent disruption of cortex actin filaments; also recorded: causes the disassembly of actin stress fiber and generates large actin aggregates; IC50 [3]: 5 µM
3 | O=C(Oc1cccc2cccnc12)c1ccccc1 [NCGC00159478] |  | highest inhibition | 
4 | CN(C)CCNC(=O)c1nc(-c2ccc(N3CCN(C)CC3)cc2)cc2c1ccn2C [NCGC00411718] |  | highest inhibition | 
5 | CCN(CC)CCNC(=O)c1c(C)[nH]c(/C=C2\C(=O)Nc3ccc(F)cc32)c1C [Sunitinib] | effectively disrupt the actin filaments |  | 
6 | O=C1c2c(O)ccc(O)c2C(=O)c2c(NCCNCCO)ccc(NCCNCCO)c21 [mitoxantrone] |  |  | Antiviral activity in vitro (in words) (SARS-CoV-2): most potent antiviral activity in vitro
